Results from patent publication US12577213B2 (NINGBO COMBIREG PHARMACEUTICAL TECHNOLOGY CO., LTD., priority 2020, dated 2026).

Legend:
OVCAR-3 (ovarian cancer) = experiment: NCI method SRB growth inhibition, OVCAR-3; type: cell-based; conditions: Homo sapiens; OVCAR-3, treated 48 hours, SRB stain
Excerpt: (§1) In this embodiment, the method of National Cancer Institute (NCI) was used to evaluate the anti-tumor activity of the embodiment compounds in the present disclosure. Nine representative cell lines were selected for activity evaluation, including A549 (non-small cell lung cancer), HCT116 (colon cancer), SF295 (central nervous system tumor), LOX-IMVI (melanoma), 786-0 (renal cancer), K562 (leukemia), PC-3 (prostate cancer), OVCAR-3 (ovarian cancer) and HS 578T (breast cancer).
(§2) The specific method was as follows: 60 tumor cell lines of 9 kinds of human cancers were used to evaluate the inhibitory activity of the compound in vitro. A test group, a parallel control group and a vehicle control group were set up. The parallel control group was fixed immediately before the compound was added; the cells in the test group were fixed after being treated with the compound for 48 hours; the vehicle control group was fixed after an equal volume of complete medium was added for 48 hours. Sulforhodamine B (SRB) was used to stain, and the OD value was measured at a wavelength of 515 nm. The specific calculation method was as follows: the OD value of the parallel control group was recorded as Tz, the OD value of the vehicle control group was recorded as C, and the OD value of the test group was recorded as (Ti). If Ti≥Tz, it means that the cells still grow after the drug was added, and the growth rate %=[(Ti−Tz)/(C−Tz)]×100; if Ti<Tz, it means that the cells are killed after the drug was added, and the growth rate %=[(Ti−Tz)/Tz]×100. Three parameters were used to evaluate the anti-tumor activity of compounds in this method: 50% growth inhibitory concentration (GI50): i.e. the compound concentration at [(Ti−Tz)/(C−Tz)]×100=50; complete growth inhibitory concentration (TGI): the compound concentration at Ti=Tz; the drug concentration required to kill 50% of the cells (LC50): i.e. the compound concentration at [(Ti−Tz)/Tz]×100=−50.
(§3) The inhibitory activities of the embodiment compounds on nine representative tumor cell lines were listed in detail in Table 1. Wherein, the GI50 value means “50% growth inhibition rate”, that is, the concentration of the compound to be tested when it can inhibit […] of cell growth; “ND” means not detected.

LOX-IMVI (melanoma) = experiment: NCI method SRB growth inhibition, LOX-IMVI; type: cell-based; conditions: Homo sapiens, treated 48 hours, SRB stain
Excerpt: as §1, §2, §3

[1] = Liver microsomes stability; type: in vitro ADME, human; conditions: 1 μM compound, 1 mg/mL human liver microsomes, 1 mM NADPH; for half-life at 1 μM: human, human liver microsomes, read-out: T½ of HLM
Experimental: The compound to be tested with final concentration of 1 μM was incubated with 1 mg/mL of human liver microsomes and 1 mM of NADPH, and a group without NADPH was set as a negative control. The reaction mixture was quenched with methanol at five time points of 0, 5, 15, 30 and 60 min, respectively, then centrifuged at 2500 rpm for 20 min to precipitate proteins, and the resulting supernatant was analyzed by LC-MS/MS. The data was analyzed and the k value and half-life T1/2 was calculated, T1/2(min)=0.693/k.
Wherein, compounds a, b and c are active compounds disclosed in patent No. ZL201610154581.3.

786-0 (renal cancer) = experiment: NCI method SRB growth inhibition, 786-0; type: cell-based; conditions: Homo sapiens; 786-0, treated 48 hours, SRB stain
Excerpt: as §1, §2, §3

K562 (leukemia) = experiment: NCI method SRB growth inhibition, K562; type: cell-based; conditions: Homo sapiens; K562, treated 48 hours, SRB stain
Excerpt: as §1, §2, §3

[2] = test system: SF295 (central nervous system tumor); experiment: NCI method SRB growth inhibition, SF295; type: cell-based; conditions: Homo sapiens, SF-295; SF295, treated 48 hours, SRB stain
Excerpt: as §1, §2, §3

[3] = test system: A549 (non-small cell lung cancer); experiment: NCI method SRB growth inhibition, A549; type: cell-based; conditions: Homo sapiens; A549, treated 48 hours, SRB stain
Excerpt: as §1, §2, §3

PC-3 (prostate cancer) = experiment: NCI method SRB growth inhibition, PC-3; type: cell-based; conditions: Homo sapiens; PC-3, treated 48 hours, SRB stain
Excerpt: as §1, §2, §3

HCT116 (colon cancer) = experiment: NCI method SRB growth inhibition, HCT116; type: cell-based; conditions: Homo sapiens, HCT-116; HCT116, treated 48 hours, SRB stain
Excerpt: as §1, §2, §3

HS 578T (breast cancer) = experiment: NCI method SRB growth inhibition, HS 578T; type: cell-based; conditions: Homo sapiens, HS578T, treated 48 hours, SRB stain
Excerpt: as §1, §2, §3

Row | microsomal CLint at 1 μM [1] [µL/min/mg] | half-life at 1 μM [1] [min] | T½ of HLM [1] [min] | SMILES | GI50 (OVCAR-3 (ovarian cancer)) [nM] | GI50 (LOX-IMVI (melanoma)) [nM] | GI50 (786-0 (renal cancer)) [nM] | GI50 (K562 (leukemia)) [nM] | GI50 [2] [nM] | GI50 [3] [nM] | GI50 (PC-3 (prostate cancer)) [nM] | GI50 (HCT116 (colon cancer)) [nM] | GI50 (HS 578T (breast cancer)) [nM]
1 | 32 | 21.7 |  | [2H]C([2H])([2H])Oc1c(OC)cc(C(=O)Nc2cc3c(cc2Oc2cc(C)cc(C)c2)C(=O)N[C@@H](CC(=O)N(CC)CC)C(=O)N3)c(Cl)c1OC [Compound 2, (S)-2-chloro-N-[3-[2-(diethylamino)-2-oxoethyl]-7-(3,5-dimethylphenoxy)-2,5-dioxo-2,3,4,5-tetrahydro-1H-benzo[e][1,4]diazepin-8-yl]-3,5-dimethoxy-4-(trideuteromethoxy)benzamide] | 6.1 | < 5 | 11.8 | < 5 | 7.9 | 13.1 | 5.5 | < 5 | 30.8
2 | 18.1 | 38 | 38.3 | [2H]C([2H])([2H])c1c(OC)cc(C(=O)Nc2cc3c(cc2Oc2cc(C)cc(C)c2)C(=O)N[C@@H](CC(=O)N(CC)CC)C(=O)N3)c(Cl)c1OC [Compound 3, (S)-2-chloro-N-[3-[2-(diethylamino)-2-oxoethyl]-7-(3,5-dimethylphenoxy)-2,5-dioxo-2,3,4,5-tetrahydro-1H-benzo[e][1,4]diazepin-8-yl]-3,5-dimethoxy-4-(trideuteromethyl)benzamide] | 28.6 | 18.4 | 110 | 8.4 | 53.2 | < 5 | 43.9 | 11.2 | 91.9
3 | 20.5 | 33.8 |  | [2H]C([2H])([2H])Oc1cc(C(=O)Nc2cc3c(cc2Oc2cc(C)cc(C)c2)C(=O)N[C@@H](CC(=O)N(CC)CC)C(=O)N3)c(Br)c(OC([2H])([2H])[2H])c1OC([2H])([2H])[2H] [Compound 4, (S)-2-bromo-N-[3-[2-(diethylamino)-2-oxoethyl]-7-(3,5-dimethylphenoxy)-2,5-dioxo-2,3,4,5-tetrahydro-1H-benzo[e][1,4]diazepin-8-yl]-3,4,5-tris(trideuteromethoxy)benzamide] | < 5 | < 5 | 11.9 | < 5 | 6 | < 5 | < 5 | < 5 | 
4 | 5.9 | 117 |  | [2H]C([2H])([2H])OC(=O)C[C@@H]1NC(=O)c2cc(Oc3cc(C)cc(C)c3)c(NC(=O)c3cc(OC)c(OC)c(OC)c3Cl)cc2NC1=O [Compound 9, (S)-2-[8-(2-chloro-3,4,5-trimethoxybenzamido)-7-(3,5-dimethylphenoxy)-2,5-dioxo-2,3,4,5-tetrahydro-1H-benzo[e][1,4]diazepin-3-yl]acetic acid trideuteromethyl ester] | 8.6 | 13.9 | 44.8 | 17 | 15.2 | 23 | 13.1 | 14.8 | 40.5
5 | 10.2 | 68 |  | [2H]C([2H])([2H])Oc1cc(C(=O)Nc2cc3c(cc2Oc2cc(C)cc(C)c2)C(=O)N[C@@H](CC(=O)N2CCC(F)(F)CC2)C(=O)N3)c(Cl)c(OC([2H])([2H])[2H])c1OC([2H])([2H])[2H] [Compound 10, (S)-2-chloro-N-[3-[2-(4,4-difluoropiperidin-1-yl)-2-oxoethyl]-7-(3,5-dimethylphenoxy)-2,5-dioxo-2,3,4,5-tetrahydro-1H-benzo[e][1,4]diazepin-8-yl]-3,4,5-tris(trideuteromethoxy)benzamide] | < 5 | < 5 | 37 | < 5 | 10.7 | 35.4 | < 5 | 34.7 | 6.4
6 | 10.8 | 64.2 |  | [2H]C([2H])([2H])N(C(=O)C[C@H]1C(=O)Nc2cc(NC(=O)c3cc(OC)c(OC)c(OC)c3Br)c(Oc3cc(C)cc(C)c3)cc2C(=O)N1C)C([2H])([2H])[2H] [Compound 15, (S)-2-bromo-N-[3-[2-[bis(trideuteromethyl)amino]-2-oxoethyl]-7-(3,5-dimethylphenoxy)-4-methyl-2,5-dioxo-2,3,4,5-tetrahydro-1H-benzo[e][1,4]diazepin-8-yl]-3,4,5-trimethoxybenzamide] | < 5 | < 5 | 6.2 | < 5 | < 5 | < 5 | < 5 |  | 
7 | 34.5 | 20.1 |  | [2H]C([2H])([2H])Oc1cc(C(=O)Nc2cc3c(cc2Oc2cc(C)cc(C)c2)C(=O)N(C)[C@@H](CC(=O)N2CCC(F)(F)CC2)C(=O)N3)c(Cl)c(OC([2H])([2H])[2H])c1OC([2H])([2H])[2H] [Compound 17, (S)-2-chloro-N-[3-[2-(4,4-difluoropiperidin-1-yl)-2-oxoethyl]-7-(3,5-dimethylphenoxy)-4-methyl-2,5-dioxo-2,3,4,5-tetrahydro-1H-benzo[e][1,4]diazepin-8-yl]-3,4,5-tris(trideuteromethoxy)benzamide] | 8.4 | < 5 | 10 | < 5 | 8 | 15.8 | < 5 | 44.9 | 5.6
8 | 65.1 | 10.6 |  | [2H]C([2H])([2H])N1C(=O)c2cc(Oc3cc(C)cc(C)c3)c(NC(=O)c3cc(OC)c(OC)c(OC)c3Br)cc2NC(=O)[C@@H]1CC(=O)N(CC)CC [Compound 18, (S)-2-bromo-N-[3-[2-(diethylamino)-2-oxoethyl]-7-(3,5-dimethylphenoxy)-4-trideuteromethyl-2,5-dioxo-2,3,4,5-tetrahydro-1H-benzo[e][1,4]diazepin-8-yl]-3,4,5-trimethoxybenzamide] | < 5 | < 5 | < 5 | < 5 | < 5 | < 5 | < 5 | < 5 | 15.4
9 | 4.6 | 151 |  | [2H]C([2H])([2H])N(C(=O)C[C@@H]1NC(=O)c2cc(Oc3cc(C)cc(C)c3)c(NC(=O)c3cc(OC)c(OC)c(OC)c3Br)cc2NC1=O)C([2H])([2H])[2H] [Compound 22, (S)-2-bromo-N-[3-[2-[bis(trideuteromethyl)amino]-2-oxoethyl]-7-(3,5-dimethylphenoxy)-2,5-dioxo-2,3,4,5-tetrahydro-1H-benzo[e][1,4]diazepin-8-yl]-3,4,5-trimethoxybenzamide] | < 5 | < 5 | 12.6 | < 5 | 10 | < 5 | < 5 | 7.1 | 
10 | 26.4 | 26.3 |  | CCN(CC)C(=O)C[C@@H]1NC(=O)c2cc(Oc3cc(C)cc(C)c3)c(NC(=O)c3cc(OC)c(OC)c(OC)c3Br)cc2NC1=O [b, reference compound] |  |  |  |  |  |  |  |  | 
11 | 26.5 | 26.2 |  | CCN(CC)C(=O)C[C@@H]1NC(=O)c2cc(Oc3cc(C)cc(C)c3)c(NC(=O)c3cc(OC)c(OC)c(OC)c3Cl)cc2NC1=O [c, reference compound] |  |  |  |  |  |  |  |  | 
